Literature values as cited in patent US20110171184A1, “Method for Introducing a Pna Molecule Conjugated to a Positively Charged Peptide into the Cytosol and/or the Nucleus by Photochemical Internalisation (Pci)” (PCI Biotech AS, priority 2004, published 2011).
Ends that are not written are not given here.

Tested on: cells
Conditions: 10 μM, after 24 hours, no PCI

scrambled NLS sequence (SEQ ID NO:4 KKVKPKR) conjugated to PNA: PNA conjugated to scrambled NLS sequence KKVKPKR (Cutrona et al.) (also: conjugated to PNA)
presence of PNA in the nucleus: only minimal amounts of PNA in the nucleus
